Experimental data taken from patent US5801176A, “Substituted benzothienylpiperazines and their use” (Hoechst Marion Roussel, Inc., priority 1997, dated 1998).
Counter-ions that a name gives are not always drawn.

Test system: apomorphine climbing
Test: climbing mice assay (apomorphine-induced climbing, antipsychotic activity)
Assay type: in vivo
Settings: Mus musculus, 0.5 h; 20 mg/kg, ip @ 30 (min before apomorphine 1.5 mg/kg sc); read-out: CLIMBING MOUSE % (percent response, climbing score vs. control set to 100%)
Experimental: The compounds of the present invention are useful for treating psychoses by virtue of their ability to elicit an antipsychotic response in mammals. Antipsychotic activity is determined in the climbing mice assay by a method similar to those described by P. Protais, et al., Psychopharmacol.,50:1 (1976) and B. Costall, Eur. J. Pharmacol., 50:39 (1978).
Subject […] male mice (23-27 grams) are group-housed under standard laboratory conditions. The mice are individually placed in wire mesh stick cages (4"×10") and are allowed one hour for adaption and exploration of the new environment. Then apomorphine is injected subcutaneously at 1.5 mg/kg, a dose causing climbing in all subjects for 30 minutes. Compounds to be tested for antipsychotic activity are injected intraperitioneally or given by oral doses at various time intervals., e.g. 30 minutes, 60 minutes, etc., prior to the apomorphine challenge at a screening dose of 10-60 mg/kg.
For evaluation of climbing, 3 readings are taken at 10, 20 and 30 minutes after apomorphine administration according to the following scale:
4 paws on bottom (no climbing)
2 paws on the wall (rearing)
4 paws on the wall (full climb)
Mice consistently climbing before the injection of apomorphine are discarded.
With full-developed apomorphine climbing, the animals are hanging on to the cage walls, rather motionless, over long periods of time. By contrast, climbs due to mere motor stimulation usually only last a few seconds.
The climbing scores are individually totaled (maximal score: 6 per mouse over 3 readings) and the total score of the control group (vehicle intraperitoneally-apomorphine subcutaneously) is set to 100%. The percent response at a dose of 20 mg/kg. or the ED50 values with 95% confidence limits, calculated by a linear regression analysis, of some of the compounds of the present invention as well as a standard antipsychotic agent are presented in Table 1.

SMILES	change in vivo at 20 mg/kg [%]
Fc1ccc2c(N3CCN(CCCCN4Cc5ccccc5C4)CC3)csc2c1	-33
O=C1c2ccccc2C(O)N1CCN1CCN(c2csc3cc(F)ccc23)CC1 (stereo not shown) [2-[2-[4-(6-Fluorobenzo[b]thien-3-yl)-1-piperazinyl]-ethyl-2,3-dihydro-3-hydroxy-1H-isoindol-1-one]	-43
O=C1c2ccccc2C(=O)N1CCCCN1CCN(c2csc3cc(F)ccc23)CC1 [2-[4-[4-(6-Fluorobenzo[b]thien-3-yl)-1-piperazinyl]butyl]-1H-isoindole-1,3(2H)-dione]	-100
NCCCCN1CCN(c2csc3cc(F)ccc23)CC1 [4-(6-Fluorobenzo[b]thien-3-yl)-1-piperazinebutanamine (Z)-2-butenedioate (1:2)]	-34
CC(=O)N(CCCCN1CCN(c2csc3cc(F)ccc23)CC1)C(=O)C(C)C [N-Acetyl-N-[4-[4-(6-fluorobenzo[b]thien-3-yl)-1-piperazinyl]butyl]-2-methyl-propanamide]	-75
O=C1c2ccccc2C(=O)N1CCN1CCN(c2csc3cc(F)ccc23)CC1 [N-[2-[4-(6-Fluorobenzo[b]thien-3-yl)-1-piperazinyl]-ethyl]-phthalimide]	-25
O=C(NCCCCN1CCN(c2csc3cc(F)ccc23)CC1)c1cccs1 [N-[4-[4-(6-Fluorobenzo[b]thien-3-yl)-1-piperazinyl]butyl]-2-thiophenecarboxamide (Z)-2-butenedioate (1:1)]	-100
O=C(NCCCCN1CCN(c2csc3cc(F)ccc23)CC1)C12CC3CC(CC(C3)C1)C2 [N-[4-[4-(6-Fluorobenzo[b]thien-3-yl)-1-piperazinyl]butyl]-adamantane-1-carboxamide maleate]	-79

Same assay, conditions: Mus musculus, 0.5 h; ip @ 30 (min before apomorphine 1.5 mg/kg sc); parentheses = 95% confidence limits

SMILES	ED50 [mg/kg]
CC(=O)NCCCCN1CCN(c2csc3cc(F)ccc23)CC1 [N-[4-[4-(6-Fluorobenzo[b]thien-3-yl)-1-piperazinyl]butyl-acetamide]	1.35
CC(C)C(=O)NCCCCN1CCN(c2csc3cc(F)ccc23)CC1 [N-[4-[4-(6-fluorobenzo[b]thien-3-yl)-1-piperazinyl]butyl]-2-methyl-propanamide]	1.3
